Experimental data from patent US8765779B2, “Tricyclic derivatives and their pharmaceutical use and compositions” (Cephalon, Inc., priority 2009, dated 2014).
pKi: −log10 of the molar value. Counter-ions that a name gives are not always drawn.

Legend:
human 5-HT6 receptor = molecular target: T1, human 5-HT6 receptor (Homo sapiens, UniProt P50406); test: Human 5-HT6 Receptor Binding Assay ([3H]LSD displacement, scintillation beads); details: membranes of CHO-K1 cells with recombinant human 5-HT6, 4 nM [3H]LSD; Table 1, class symbols; read-out: h5-HT6 (Ki)
T1 construct: host or cells: CHO-K1 cells, stably transfected; membranes prepared in house
T1 sequence (P50406 whole entry): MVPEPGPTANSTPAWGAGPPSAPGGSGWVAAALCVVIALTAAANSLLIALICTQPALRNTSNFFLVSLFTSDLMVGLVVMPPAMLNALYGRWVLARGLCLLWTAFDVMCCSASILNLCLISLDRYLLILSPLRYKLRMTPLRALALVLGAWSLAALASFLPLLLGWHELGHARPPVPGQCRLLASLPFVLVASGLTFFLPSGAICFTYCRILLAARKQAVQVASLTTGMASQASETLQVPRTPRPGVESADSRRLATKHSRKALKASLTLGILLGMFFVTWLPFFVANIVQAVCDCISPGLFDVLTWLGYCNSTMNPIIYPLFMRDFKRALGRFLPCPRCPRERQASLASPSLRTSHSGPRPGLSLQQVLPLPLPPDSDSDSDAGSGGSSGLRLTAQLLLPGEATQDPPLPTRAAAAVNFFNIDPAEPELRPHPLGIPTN

SMILES | melting point | pKi (human 5-HT6 receptor)
CC12CCNCC1Oc1cc(S(=O)(=O)c3ccccn3)ccc12 (racemic) (as salt: HCl) [Example 8, 4a-methyl-7-(pyridin-2-ylsulfonyl)-1,2,3,4,4a,9a-hexahydro[1]benzofuro[2,3-c]pyridine] | 282 to 283 °C | 
CC12CCNCC1Oc1cc(S(=O)(=O)c3ncccn3)ccc12 (racemic) (as salt: HCl) [Example 9, 4a-methyl-7-(pyrimidin-2-ylsulfonyl)-1,2,3,4,4a,9a-hexahydro[1]benzofuro[2,3-c]pyridine] | 232 to 234 °C | 
CCOc1cccc(S(=O)(=O)c2ccc3c(c2)OC2CNCCC32C)c1 (racemic) (as salt: HCl) [Example 10, 7-[(3-ethoxyphenyl)sulfonyl]-4a-methyl-1,2,3,4,4a,9a-hexahydro[1]benzofuro[2,3-c]pyridine] | 271 to 273 °C | 
CC12CCNCC1Oc1cc(S(=O)(=O)c3cccc(F)c3)ccc12 (racemic) (as salt: HCl) [Example 11, 7-[(3-fluorophenyl)sulfonyl]-4a-methyl-1,2,3,4,4a,9a-hexahydro[1]benzofuro[2,3-c]pyridine] | 288 to 290 °C | 
CC(C)Oc1cccc(S(=O)(=O)c2ccc3c(c2)OC2CNCCC32C)c1 (racemic) (as salt: HCl) [Example 12, 4a-methyl-7-{[3-(propan-2-yloxy)phenyl]sulfonyl}-1,2,3,4,4a,9a-hexahydro[1]benzofuro[2,3-c]pyridine] | 206 to 208 °C | 
CC12CCNCC1Oc1ccc(S(=O)(=O)c3ccncc3)cc12 (racemic) (as salt: HCl) [Example 13, 4a-methyl-6-(pyridin-4-ylsulfonyl)-1,2,3,4,4a,9a-hexahydro[1]benzofuro[2,3-c]pyridine] | 186 to 188 °C | 
CC12CCNCC1Oc1ccc(S(=O)(=O)c3cc[n+]([O-])cc3)cc12 (racemic) (as salt: HCl) [Example 14, 4a-methyl-6-[(1-oxidopyridin-4-yl)sulfonyl]-1,2,3,4,4a,9a-hexahydro[1]benzofuro[2,3-c]pyridine] | 207 to 210 °C | 
CC1(C)CNC(C2CCOCC2)c2oc3cc(S(=O)(=O)c4cccc(F)c4)ccc3c21 (racemic) (as salt: HCl) [Example 45, 7-[(3-fluorophenyl)sulfonyl]-4,4-dimethyl-1-(tetrahydro-2H-pyran-4-yl)-1,2,3,4-tetrahydro[1]benzofuro[2,3-c]pyridine] | 248 to 252 °C | 
CC1(C)CNC2(CCOCC2)c2oc3cc([S+]([O-])c4cccc(F)c4)ccc3c21 (racemic) (as salt: HCl) [Example 47, 7-[(3-fluorophenyl)sulfinyl]-4,4-dimethyl-2′,3,3′,4,5′,6′-hexahydro-2H-spiro[1-benzofuro[2,3-c]pyridine-1,4′-pyran]] | 248 to 253 °C | 
CC(C)Oc1cccc(S(=O)(=O)c2ccc3c(c2)OC2CNCCC32C)c1 (single isomer, unassigned) (as salt: HCl) [Example 20, 4a-methyl-7-{[3-(propan-2-yloxy)phenyl]sulfonyl}-1,2,3,4,4a,9a-hexahydro[1]benzofuro[2,3-c]pyridine] | 184 to 185 °C | 
CC(C)Oc1cccc(S(=O)(=O)c2ccc3c(c2)OC2CNCCC32C)c1 (single isomer, unassigned) (as salt: HCl) [Example 21, 4a-methyl-7-{[3-(propan-2-yloxy)phenyl]sulfonyl}-1,2,3,4,4a,9a-hexahydro[1]benzofuro[2,3-c]pyridine] | 183 to 184 °C | 
O=S(=O)(c1cccc(OCC2CCOCC2)c1)c1ccc2c(c1)OC1CNCCC21 (single isomer, unassigned) (as salt: HCl) [Example 548, 7-{[3-(Tetrahydro-2H-pyran-4-ylmethoxy)phenyl]sulfonyl}-1,2,3,4,4a,9a-hexahydro[1]benzofuro[2,3-c]pyridine] | 187 to 189 °C | 
C[C@@H]1CCCN1CCCOc1cc(F)cc(S(=O)(=O)c2ccc3c(c2)OC2CNCCC32)c1 (single isomer, unassigned) [Example 626] | 208 to 212 °C | < 6.00
CC1(C(F)F)NCCc2c1oc1cc(S(=O)(=O)c3cccc(F)c3F)ccc21 (single isomer, unassigned; enantiomer 1) (as salt: HCl) [Example 471, 1-(Difluoromethyl)-7-[(2,3-difluorophenyl)sulfonyl]-1-methyl-1,2,3,4-tetrahydro[1]benzofuro[2,3-c]pyridine, enantiomer 1] | 247 to 250 °C | 

Results, then the molecule that gave them:

melting point | pKi (human 5-HT6 receptor) | SMILES
148 to 155 °C (dec.) |  | CC(C)Oc1cccc(S(=O)(=O)c2ccc3c4c(oc3c2)C2(CCCOC2)NCC4)c1 (racemic) (as salt: HCl) [Example 23, 7-{[3-(propan-2-yloxy)phenyl]sulfonyl}-3,4,5′,6′-tetrahydro-2H,4′H-spiro[1-benzofuro[2,3-c]pyridine-1,3′-pyran]]
> 300 °C |  | CCC1(C)NCCc2c1oc1cc(S(=O)(=O)c3cccc(F)c3)ccc21 (racemic) (as salt: HCl) [Example 27, 1-ethyl-7-[(3-fluorophenyl)sulfonyl]-1-methyl-1,2,3,4-tetrahydro[1]benzofuro[2,3-c]pyridine]
> 250 °C (dec.) |  | CC1(C2CC2)NCCc2c1oc1cc(S(=O)(=O)c3cccc(F)c3)ccc21 (racemic) (as salt: HCl) [Example 29, 1-cyclopropyl-7-[(3-fluorophenyl)sulfonyl]-1-methyl-1,2,3,4-tetrahydro[1]benzofuro[2,3-c]pyridine]
230 to 250 °C (dec.) |  | CCOCC1NCCc2c1oc1cc(S(=O)(=O)c3cccc(F)c3)ccc21 (racemic) (as salt: HCl) [Example 33, 1-(ethoxymethyl)-7-[(3-fluorophenyl)sulfonyl]-1,2,3,4-tetrahydro[1]benzofuro[2,3-c]pyridine]
284 to 286 °C |  | CC(C)CC1(C)NCCc2c1oc1cc(S(=O)(=O)c3cccc(F)c3)ccc21 (racemic) (as salt: HCl) [Example 36, 7-[(3-fluorophenyl)sulfonyl]-1-methyl-1-(2-methylpropyl)-1,2,3,4-tetrahydro[1]benzofuro[2,3-c]pyridine]
220 to 223 °C |  | CN(C)C(=O)CC1(C)NCCc2c1oc1cc(S(=O)(=O)c3cccc(F)c3)ccc21 (racemic) (as salt: HCl) [Example 40, 2-{7-[(3-fluorophenyl)sulfonyl]-1-methyl-1,2,3,4-tetrahydro[1]benzofuro[2,3-c]pyridin-1-yl}-N,N-dimethylacetamide]
263 to 268 °C |  | CC1(C)CNC2(CCOC2)c2oc3cc(S(=O)(=O)c4cccc(F)c4)ccc3c21 (racemic) (as salt: HCl) [Example 46, 7-[(3-fluorophenyl)sulfonyl]-4,4-dimethyl-3,4,4′,5′-tetrahydro-2H-spiro[1-benzofuro[2,3-c]pyridine-1,3′-furan]]
85 to 95 °C | > 6.30 | O=S(=O)(c1cc(F)cc(F)c1)c1ccc2c3c(oc2c1)C1(CCCOC1)NCC3 (racemic) [Example 24, 7-[(3,5-difluorophenyl)sulfonyl]-3,4,5′,6′-tetrahydro-2H,4′H-spiro[1-benzofuro[2,3-c]pyridine-1,3′-pyran]]
261 to 263 °C (dec.) |  | CC(C)Oc1cccc(S(=O)(=O)c2ccc3c4c(oc3c2)C2(CCOC2)NCC4)c1 (single isomer, unassigned) (as salt: HCl) [Example 31, 7-{[3-(propan-2-yloxy)phenyl]sulfonyl}-3,4,4′,5′-tetrahydro-2H-spiro[1-benzofuro[2,3-c]pyridine-1,3′-furan]]
259 to 261 °C (dec.) |  | CC(C)Oc1cccc(S(=O)(=O)c2ccc3c4c(oc3c2)C2(CCOC2)NCC4)c1 (single isomer, unassigned) (as salt: HCl) [Example 32, 7-{[3-(propan-2-yloxy)phenyl]sulfonyl}-3,4,4′,5′-tetrahydro-2H-spiro[1-benzofuro[2,3-c]pyridine-1,3′-furan]]
219 to 222 °C |  | CC(C)Oc1cccc(S(=O)(=O)c2ccc3c4c(oc3c2)C(C)(C(F)F)NCC4)c1 (single isomer, unassigned) (as salt: HCl) [Example 34, 1-(difluoromethyl)-1-methyl-7-{[3-(propan-2-yloxy)phenyl]sulfonyl}-1,2,3,4-tetrahydro[1]benzofuro[2,3-c]pyridine]
230 to 233 °C |  | CN(C)C(=O)CC1(C)NCCc2c1oc1cc(S(=O)(=O)c3cccc(F)c3)ccc21 (single isomer, unassigned) (as salt: HCl) [Example 50, 2-{7-[(3-fluorophenyl)sulfonyl]-1-methyl-1,2,3,4-tetrahydro[1]benzofuro[2,3-c]pyridin-1-yl}-N,N-dimethylacetamide]
262 to 265 °C |  | CC1OCCC12NCCc1c2oc2cc(S(=O)(=O)c3cccc(F)c3)ccc12 (single isomer, unassigned) (as salt: HCl) [Example 59, 7-[(3-Fluorophenyl)sulfonyl]-2′-methyl-3,4,4′,5′-tetrahydro-2H-spiro[1-benzofuro[2,3-c]pyridine-1,3′-furan]]
298 to 301 °C (dec.) |  | CC1OCCC12NCCc1c2oc2cc(S(=O)(=O)c3cccc(F)c3)ccc12 (single isomer, unassigned) (as salt: HCl) [Example 60, 7-[(3-Fluorophenyl)sulfonyl]-2′-methyl-3,4,4′,5′-tetrahydro-2H-spiro[1-benzofuro[2,3-c]pyridine-1,3′-furan]]
251 to 260 °C | > 6.30 | O=S(=O)(c1cccc(F)c1)c1ccc2c3c(oc2c1)C1(CCOCC1F)NCC3 (single isomer, unassigned) [Example 55, 3′-Fluoro-7-[(3-fluorophenyl)sulfonyl]-2′,3,3′,4,5′,6′-hexahydro-2H-spiro[1-benzofuro[2,3-c]pyridine-1,4′-pyran]]
154 to 157 °C |  | O=S(=O)(c1cccc(F)c1)c1ccc2c3c(oc2c1)C(CF)(CF)NCC3 [Example 35, 1,1-bis(fluoromethyl)-7-[(3-fluorophenyl)sulfonyl]-1,2,3,4-tetrahydro[1]benzofuro[2,3-c]pyridine]
